Patent US8598183B2, “Solid state forms of a potent HCV inhibitor” (Boehringer Ingelheim International GmbH, priority 2010, dated 2013)

Tests used:
[1] = biological target: HCV NS5B RNA-dependent RNA polymerase (Hepatitis C virus genotype 1a, UniProt P27958); conditions: cited from earlier work
[2] = Solubility of Compound (1) in physiological pH range; thermodynamic solubility; assay type: physicochemical; conditions: aqueous buffer, thermodynamic from solid; physiological pH range of 2-6.8
Description: Doses of Compound (1) up to 400 to 600 mg per dose may be required to be delivered to obtain exposures necessary for sufficient efficacy in vivo. Based on thermodynamic solubility of Compound (1), solubility of 0.005-0.01 mg/ml is estimated for Compound (1) sodium salt.

[3] = Physical and chemical stability under accelerated storage conditions; assay type: physicochemical
Description: The glass transition temperature of the amorphous form of Compound (1) sodium salt is >200° C., which is quite atypical for pharmaceutical active materials and can be considered an unexpected finding.

[4] = Powder dissolution testing in pH 6.8 buffer, USP Type II Paddle apparatus; assay type: physicochemical; conditions: 60 minutes

HCV NS5B RNA-dependent RNA polymerase, sequence (P27958 2421-3011): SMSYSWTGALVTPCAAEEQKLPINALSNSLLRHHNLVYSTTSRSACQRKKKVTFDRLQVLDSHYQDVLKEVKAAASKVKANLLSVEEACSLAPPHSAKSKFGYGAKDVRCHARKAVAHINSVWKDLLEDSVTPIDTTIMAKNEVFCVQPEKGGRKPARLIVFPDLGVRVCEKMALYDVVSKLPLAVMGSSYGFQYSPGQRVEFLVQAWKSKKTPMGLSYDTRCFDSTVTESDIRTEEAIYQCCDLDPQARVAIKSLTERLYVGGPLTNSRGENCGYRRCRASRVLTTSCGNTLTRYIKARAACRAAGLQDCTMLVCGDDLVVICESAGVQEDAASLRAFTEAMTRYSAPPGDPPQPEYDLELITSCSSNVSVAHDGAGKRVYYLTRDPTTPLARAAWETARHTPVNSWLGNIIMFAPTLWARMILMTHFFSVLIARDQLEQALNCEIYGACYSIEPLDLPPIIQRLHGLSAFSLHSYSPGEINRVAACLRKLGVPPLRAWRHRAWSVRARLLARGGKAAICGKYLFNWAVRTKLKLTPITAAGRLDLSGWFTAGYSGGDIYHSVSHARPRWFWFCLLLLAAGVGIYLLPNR

Row | Structure (SMILES) | inhibition of HCV NS5B RNA-dependent RNA polymerase [1] | solubility [2] [µg/mL] | physical and chemical stability [3] | % dissolved (kinetic dissolution) [4]
1 | Cn1c(C2(NC(=O)c3ccc4c(C5CCCC5)c(-c5ncc(Br)cn5)n(C)c4c3)CCC2)nc2ccc(/C=C/C(=O)O)cc21 [Compound (1), (E)-3-[2-(1-{[2-(5-Bromo-pyrimidin-2-yl)-3-cyclopentyl-1-methyl-1H-indole-6-carbonyl]-amino}-cyclobutyl)-3-methyl-3H-benzimidazol-5-yl]-acrylic acid] | selective and potent inhibitor | < 0.2 | – | –
2 | Cn1c(C2(NC(=O)c3ccc4c(C5CCCC5)c(-c5ncc(Br)cn5)n(C)c4c3)CCC2)nc2ccc(/C=C/C(=O)[O-])cc21.[Na+] [amorphous Compound (1) sodium salt] | – | – | acceptable physical and chemical stability | about 35%
